Data on 25 molecules can be found in US20250179059A1 (The Regents of the University of California, priority 2021, published 2025).

Broadly, the GI50 is the concentration that inhibits growth by half. The term IC50 denotes the concentration that inhibits the measured activity by half.

The test system of experiment [1] is human SKM-1 acute myeloid leukemia cells. In words: SKM-1 antiproliferation cell-based assay (ATPlite). To be noted: Homo sapiens, SKM-1, 96 h, SKM-1 antiproliferation assay, 4 days, Table C2. The method, boiled down:
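Log-phase cells in RPMI 1640/15% FBS were seeded at 34722 cells/mL and exposed for 4 days to nine-concentration DMSO serial dilutions in triplicate. Viability was read as ATP luminescence (ATPlite 1step), and IC50 values came from variable-slope non-linear regression.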

The target of experiment [2] is T1, human BRD4 bromodomain II (Homo sapiens, UniProt O60885).
T1 construct: human BRD4 bromodomain II [based on Genbank NM_058243, residues 349-460]; host or cells: E. coli
In words: Bromodomain binding assay (AlphaScreen), BRD4 BDII. The following applies: AlphaScreen assay, Table C2; read-out: BRD4 BDII IC50. The method, boiled down: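 Inhibition of acetyl-H4 peptide binding to human BRD4 bromodomains is measured by bead-based proximity (AlphaScreen) in pH 7.5 HEPES buffer containing 0.05% CHAPS and 0.1% BSA. Ten compound concentrations in 3-fold steps give competitive binding IC50s.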
(In general: Alpha assays give light when donor and acceptor beads are brought close together.)

As for `CN1CCN(c2ccc(-c3cc(F)cc(-c4ccnc(N5CCNC5=O)c4)c3O)cc2Cl)C1=O` [Example 354, 1-(3-chloro-5′-fluoro-2′-hydroxy-3′-(2-(2-oxoimidazolidin-1-yl)pyridin-4-yl)-[1,1′-biphenyl]-4-yl)-3-methylimidazolidin-2-one], in experiment [1], the GI50 is not below 3000 nM. Besides, in experiment [2], the IC50 was more than 100 nM.

In experiment [1], `CN1CCN(c2ccc(-c3cccc(-c4cc(CO)cc(N5CCNCC5)c4)c3O)cc2Cl)C1=O` [Example 355, 1-(3-chloro-2′-hydroxy-3″-(hydroxymethyl)-5″-(piperazin-1-yl)-[1,1′:3′,1″-terphenyl]-4-yl)-3-methylimidazolidin-2-one] came in with a GI50 of 30 to 300 nM. Besides, the IC50 in experiment [2] lay in the range of 1 to 10 nM.

As for `CC1=CCN(c2ccc(-c3cccc(-c4ccnc(N5CCNCC5)c4)c3O)cc2Cl)C1=O` [Example 356, 1-(3-chloro-2′-hydroxy-3′-(2-(piperazin-1-yl)pyridin-4-yl)-[1,1′-biphenyl]-4-yl)-3-methyl-1H-pyrrol-2(5H)-one], in experiment [1], the GI50 was 30 to 300 nM. The IC50 in experiment [2] was in the range of 1 to 10 nM.

On to `CN1CCN(c2ccc(-c3cc(F)cc(-c4cnc(C#N)c(N5CCNCC5)c4)c3O)cc2Cl)C1=O` [Example 357, 5-(3′-chloro-5-fluoro-2-hydroxy-4′-(3-methyl-2-oxoimidazolidin-1-yl)-[1,1′-biphenyl]-3-yl)-3-(piperazin-1-yl)picolinonitrile], for which, in experiment [1], the GI50 lay in the range of 30 to 300 nM. Moreover, the IC50 in experiment [2] lay within 1 to 10 nM.

Molecule `CN1CCN(c2ccc(-c3cc(F)cc(-c4ccc(CO)c(N5CCNCC5)c4)c3O)cc2Cl)C1=O` [Example 358, 1-(3-chloro-5′-fluoro-2′-hydroxy-4″-(hydroxymethyl)-3″-(piperazin-1-yl)-[1,1′:3′,1″-terphenyl]-4-yl)-3-methylimidazolidin-2-one] returned a GI50 in experiment [1] of 30 to 300 nM. Besides, the IC50 in experiment [2] fell in the range of 1 to 10 nM.

For `C[C@@H]1CN(c2cc(-c3cc(F)cc(-c4ccc(N5CCN(C)C5=O)c(Cl)c4)c3O)ccn2)CCN1` [Example 359, (R)-1-(3-chloro-5′-fluoro-2′-hydroxy-3′-(2-(3-methylpiperazin-1-yl)pyridin-4-yl)-[1,1′-biphenyl]-4-yl)-3-methylimidazolidin-2-one], in experiment [1], the GI50 is 30 to 300 nM. In addition, the IC50 in experiment [2] lay in the range of 1 to 10 nM.

As to `CN1CCN(c2ccc(-c3cc(F)cc(-c4ccnc(N5CCC[C@H](N)C5)c4)c3O)cc2Cl)C1=O` [Example 360, (S)-1-(3′-(2-(3-aminopiperidin-1-yl)pyridin-4-yl)-3-chloro-5′-fluoro-2′-hydroxy-[1,1′-biphenyl]-4-yl)-3-methylimidazolidin-2-one], the GI50 in experiment [1] was 30 to 300 nM. For the same molecule, the IC50 in experiment [2] was in the range of 1 to 10 nM.

Turning to `CC(=O)Nc1ccc(-c2cccc(-c3cc(OC4CCC(O)CC4)nc(N4CCNCC4)c3)c2O)cc1F` (centres unmarked) [Example 361, N-(3-fluoro-2′-hydroxy-3′-(2-((4-hydroxycyclohexyl)oxy)-6-(piperazin-1-yl)pyridin-4-yl)-[1,1′-biphenyl]-4-yl)acetamide], in experiment [1], the GI50 is 30 to 300 nM. The IC50 in experiment [2] fell in the range of 10 to 100 nM.

As for `Cc1cc(-c2ccnc(N3CC[C@H](N)C3)c2)c(O)c(-c2ccc(N3CCN(C)C3=O)c(Cl)c2)c1` [Example 362, (S)-1-(3′-(2-(3-aminopyrrolidin-1-yl)pyridin-4-yl)-3-chloro-2′-hydroxy-5′-methyl-[1,1′-biphenyl]-4-yl)-3-methylimidazolidin-2-one], the GI50 in experiment [1] is 30 to 300 nM. Also, in experiment [2], the IC50 is 1 to 10 nM.

In experiment [1], `CN1CCN(c2ccc(-c3cc(F)cc(-c4ccnc(NCCN)c4)c3O)cc2Cl)C1=O` [Example 363, 1-(3′-(2-((2-aminoethyl)amino)pyridin-4-yl)-3-chloro-5′-fluoro-2′-hydroxy-[1,1′-biphenyl]-4-yl)-3-methylimidazolidin-2-one] returned a GI50 of 300 to 3000 nM. The IC50 in experiment [2] is 10 to 100 nM.

The molecule `CC(C)N1CCN(c2ccc(-c3cc(F)cc(-c4ccnc(N5CCNCC5)c4)c3O)cc2Cl)C1=O` [Example 364, 1-(3-chloro-5′-fluoro-2′-hydroxy-3′-(2-(piperazin-1-yl)pyridin-4-yl)-[1,1′-biphenyl]-4-yl)-3-isopropylimidazolidin-2-one] yielded a GI50 in experiment [1] not below 3000 nM. The IC50 in experiment [2] was more than 100 nM.

Molecule `CC1=CCN(c2ccc(-c3cc(F)cc(-c4ccnc(N5CCNCC5)c4)c3O)cc2Cl)C1=O` [Example 366, 1-(3-chloro-5′-fluoro-2′-hydroxy-3′-(2-(piperazin-1-yl)pyridin-4-yl)-[1,1′-biphenyl]-4-yl)-3-methyl-1,5-dihydro-2H-pyrrol-2-one] came in with a GI50 in experiment [1] of 30 to 300 nM. In experiment [2], the IC50 is 1 to 10 nM.

The molecule `C#CCN1CCN(c2ccc(-c3cc(F)cc(-c4ccnc(N5CCNCC5)c4)c3O)cc2Cl)C1=O` [Example 367, 1-(3-chloro-5′-fluoro-2′-hydroxy-3′-(2-(piperazin-1-yl)pyridin-4-yl)-[1,1′-biphenyl]-4-yl)-3-(prop-2-yn-1-yl)imidazolidin-2-one] had a GI50 in experiment [1] of 300 to 3000 nM. Besides, the IC50 in experiment [2] is more than 100 nM.

As for `CN1CCN(c2ccc(-c3cccc(-c4cc(C5CC5)nc(N5CCNCC5)c4)c3O)cc2Cl)C1=O` [Example 368, 1-(3-chloro-3′-(2-cyclopropyl-6-(piperazin-1-yl)pyridin-4-yl)-2′-hydroxy-[1,1′-biphenyl]-4-yl)-3-methylimidazolidin-2-one], the GI50 in experiment [1] lay in the range of 30 to 300 nM. The IC50 in experiment [2] was in the range of 1 to 10 nM.

For the molecule `CN1CCN(c2ccc(-c3cccc(-c4ccc5[nH]c6c(c5c4)CNCC6)c3O)cc2Cl)C1=O` [Example 369, 1-(3-chloro-2′-hydroxy-3′-(2,3,4,5-tetrahydro-1H-pyrido[4,3-b]indol-8-yl)-[1,1′-biphenyl]-4-yl)-3-methylimidazolidin-2-one], the GI50 in experiment [1] is not below 3000 nM. The IC50 in experiment [2] fell in the range of 10 to 100 nM.

In experiment [1], `CC(=O)NCc1ncc(-c2cc(F)cc(-c3ccc(N4CCN(C)C4=O)c(Cl)c3)c2O)cc1N1CCNCC1` [Example 370, N-((5-(3′-chloro-5-fluoro-2-hydroxy-4′-(3-methyl-2-oxoimidazolidin-1-yl)-[1,1′-biphenyl]-3-yl)-3-(piperazin-1-yl)pyridin-2-yl)methyl)acetamide] had a GI50 of 30 to 300 nM. Besides, the IC50 in experiment [2] lay in the range of 1 to 10 nM.

Turning to `O=C1OCCN1c1ccc(-c2cc(F)cc(-c3ccnc(N4CCNCC4)c3)c2O)cc1Cl` [Example 371, 3-(3-chloro-5′-fluoro-2′-hydroxy-3′-(2-(piperazin-1-yl)pyridin-4-yl)-[1,1′-biphenyl]-4-yl)oxazolidin-2-one], in experiment [1], the GI50 is 300 to 3000 nM. Also, the IC50 in experiment [2] was 10 to 100 nM.

`CN1CCN(c2ccc(-c3cc(F)cc(-c4cc(N5CCNCC5)c(=O)n(C)c4)c3O)cc2Cl)C1=O` [Example 372, 5-(3′-chloro-5-fluoro-2-hydroxy-4′-(3-methyl-2-oxoimidazolidin-1-yl)-[1,1′-biphenyl]-3-yl)-1-methyl-3-(piperazin-1-yl)pyridin-2(1H)-one] had a 50% growth inhibitory concentration (GI50) in experiment [1] of 30 to 300 nM. In addition, the IC50 in experiment [2] is 1 to 10 nM.

In the case of `O=C1NCCN1c1ccc(-c2cc(F)cc(-c3ccnc(N4CCNCC4)c3)c2O)cc1Cl` [Example 373, 1-(3-chloro-5′-fluoro-2′-hydroxy-3′-(2-(piperazin-1-yl)pyridin-4-yl)-[1,1′-biphenyl]-4-yl)imidazolidin-2-one], the GI50 in experiment [1] fell in the range of 300 to 3000 nM. Also, the half-inhibitory concentration (IC50) in experiment [2] lay in the range of 10 to 100 nM.

Turning to `CCc1cc(-c2cccc(-c3ccc(N4CCN(C)C4=O)c(Cl)c3)c2O)cc(N2CCNCC2)n1` [Example 374, 1-(3-chloro-3′-(2-ethyl-6-(piperazin-1-yl)pyridin-4-yl)-2′-hydroxy-[1,1′-biphenyl]-4-yl)-3-methylimidazolidin-2-one], the GI50 in experiment [1] lay in the range of 300 to 3000 nM. In experiment [2], the IC50 was 1 to 10 nM.

In experiment [1], `CC(=O)Nc1ccc(-c2cccc(-c3cc(OC4CCC(N)CC4)nc(N4CCNCC4)c3)c2O)cc1F` (centres unmarked) [Example 375, N-(3′-(2-((4-aminocyclohexyl)oxy)-6-(piperazin-1-yl)pyridin-4-yl)-3-fluoro-2′-hydroxy-[1,1′-biphenyl]-4-yl)acetamide] returned a GI50 of 300 to 3000 nM. In addition, the IC50 in experiment [2] is 10 to 100 nM.

On to `COC(=O)c1ncc(-c2cc(F)cc(-c3ccc(N4CCN(C)C4=O)c(Cl)c3)c2O)cc1N1CCNCC1` [Example 376, Methyl 5-(3′-chloro-5-fluoro-2-hydroxy-4′-(3-methyl-2-oxoimidazolidin-1-yl)-[1,1′-biphenyl]-3-yl)-3-(piperazin-1-yl)picolinate], for which the GI50 in experiment [1] was not below 3000 nM. Moreover, in experiment [2], the half-inhibitory concentration (IC50) is more than 100 nM.

Take `C[C@@H]1CN(c2cc(-c3cc(F)cc(-c4ccc(N5CCN(C)C5=O)c(Cl)c4)c3O)cn(C)c2=O)CCN1` [Example 377, (R)-5-(3′-chloro-5-fluoro-2-hydroxy-4′-(3-methyl-2-oxoimidazolidin-1-yl)-[1,1′-biphenyl]-3-yl)-1-methyl-3-(3-methylpiperazin-1-yl)pyridin-2(1H)-one]: the GI50 in experiment [1] was in the range of 30 to 300 nM. Besides, the IC50 in experiment [2] lay in the range of 1 to 10 nM.

`CN1CCN(c2ccc(-c3cc(F)cc(-c4cc(N5CCC[C@H](N)C5)c(=O)n(C)c4)c3O)cc2Cl)C1=O` [Example 378, (S)-3-(3-aminopiperidin-1-yl)-5-(3′-chloro-5-fluoro-2-hydroxy-4′-(3-methyl-2-oxoimidazolidin-1-yl)-[1,1′-biphenyl]-3-yl)-1-methylpyridin-2(1H)-one] displayed a GI50 in experiment [1] of 30 to 300 nM. Also, the concentration for half-maximal inhibition (IC50) in experiment [2] fell in the range of 1 to 10 nM.

`CN1CCN(c2ccc(-c3cc(F)cc(-c4ccnc(C5=CCNCC5)c4)c3O)cc2Cl)C1=O` [Example 379, 1-(3-chloro-5′-fluoro-2′-hydroxy-3′-(1′,2′,3′,6′-tetrahydro-[2,4′-bipyridin]-4-yl)-[1,1′-biphenyl]-4-yl)-3-methylimidazolidin-2-one] displayed a GI50 in experiment [1] of 30 to 300 nM. The IC50 in experiment [2] lay within 1 to 10 nM.
